Assays:
Assay in all cases: relative viability (nuclei count vs DMSO), 5 days (fraction); higher = more cells survive
PAC-1 + Luminespib = compound: C=CCc1cccc(/C=N/NC(=O)CN2CCN(Cc3ccccc3)CC2)c1O [PAC-1] + CCNC(=O)c1noc(-c2cc(C(C)C)c(O)cc2O)c1-c1ccc(CN2CCOCC2)cc1 [Luminespib] (partner 0.01 µM)
Method in brief: (§1)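 Relative viability divides the nuclei count in treated wells by that in vehicle wells. Lung cancer cell lines were seeded in 1536-well plates, dosed by pin tool the next day, and fixed and stained after 5 days in one step with final 0.05% Triton X-100, 1% formaldehyde and 1 ug/ml Hoechst. Dosing was a single drug or a fixed anchor-drug dose plus five library-drug doses (not always all listed) in √10 steps, and values are medians of duplicate plates imaged at 4×.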

BMX-IN-1 + Decitabine = compound: C=CC(=O)Nc1cc(-n2c(=O)ccc3cnc4ccc(-c5ccc(NS(C)(=O)=O)cc5)cc4c32)ccc1C [BMX-IN-1] + Nc1ncn([C@H]2C[C@H](O)[C@@H](CO)O2)c(=O)n1 [Decitabine] (partner 2 µM)
Method in brief: as §1

Ibrutinib + Crizotinib = compound: C=CC(=O)N1CCC[C@@H](n2nc(-c3ccc(Oc4ccccc4)cc3)c3c(N)ncnc32)C1 [Ibrutinib] + C[C@@H](Oc1cc(-c2cnn(C3CCNCC3)c2)cnc1N)c1c(Cl)ccc(F)c1Cl [Crizotinib] (partner 1 µM)
Method in brief: as §1

Ibrutinib + Bortezomib = compound: C=CC(=O)N1CCC[C@@H](n2nc(-c3ccc(Oc4ccccc4)cc3)c3c(N)ncnc32)C1 [Ibrutinib] + CC(C)C[C@H](NC(=O)[C@H](Cc1ccccc1)NC(=O)c1cnccn1)B(O)O [Bortezomib] (partner 0.002 µM)
Method in brief: as §1

| Cell Line | relative viability (PAC-1 + Luminespib; first compound 0.02 µM) | relative viability (PAC-1 + Luminespib; first compound 0.06325 µM) | relative viability (PAC-1 + Luminespib; first compound 0.2 µM) | relative viability (PAC-1 + Luminespib; first compound 2 µM) | relative viability (BMX-IN-1 + Decitabine; first compound 0.02 µM) | relative viability (BMX-IN-1 + Decitabine; first compound 0.2 µM) | relative viability (BMX-IN-1 + Decitabine; first compound 0.6325 µM) | relative viability (BMX-IN-1 + Decitabine; first compound 2 µM) | relative viability (Ibrutinib + Crizotinib; first compound 0.005 µM) | relative viability (Ibrutinib + Crizotinib; first compound 0.01581 µM) | relative viability (Ibrutinib + Crizotinib; first compound 0.05 µM) | relative viability (Ibrutinib + Crizotinib; first compound 0.1581 µM) | relative viability (Ibrutinib + Bortezomib; first compound 0.005 µM) | relative viability (Ibrutinib + Bortezomib; first compound 0.01581 µM) | relative viability (Ibrutinib + Bortezomib; first compound 0.05 µM) | relative viability (Ibrutinib + Bortezomib; first compound 0.1581 µM) | relative viability (Ibrutinib + Bortezomib; first compound 0.5 µM) | relative viability (Ibrutinib + Crizotinib; first compound 0.5 µM) |
| --- | --- | --- | --- | --- | --- | --- | --- | --- | --- | --- | --- | --- | --- | --- | --- | --- | --- | --- |
| NCI-H1623 | 0.465 | 0.473 | 0.515 | 0.499 |  |  |  |  |  |  |  |  |  |  |  |  |  |  |
| HOP-62 | 0.954 | 0.835 | 0.852 | 0.942 | 0.214 | 0.255 | 0.26 | 0.237 | 0.988 | 0.947 | 1 | 0.948 | 0.459 | 1 | 0.816 | 0.834 | 0.804 |  |
| NCI-H727 | 0.255 | 0.371 | 0.639 | 0.315 | 0.668 | 0.917 | 0.777 | 1.01 | 0.74 | 0.616 | 0.71 | 0.868 | 0.628 | 0.796 | 0.981 | 0.623 | 0.785 | 0.617 |
| ChaGo-K-1 | 0.645 | 0.737 | 0.645 | 0.715 | 0.512 | 0.549 | 0.551 | 0.519 | 1.18 | 1.05 | 1.16 |  | 0.906 | 1.04 | 0.927 |  | 0.959 | 1.06 |
| BEN | 0.594 | 0.282 | 0.535 | 0.273 | 0.7 | 0.755 | 0.792 | 0.674 | 0.952 | 0.962 | 0.803 | 0.67 | 0.54 | 0.828 | 0.667 | 0.57 | 0.572 | 0.943 |
| NCI-H596 | 0.913 | 0.975 | 0.929 | 1.08 | 1.04 | 1.14 | 0.945 | 1.2 | 0.974 | 0.955 | 0.903 | 0.803 | 1.21 | 0.457 |  | 0.834 | 0.92 | 0.747 |
| LU99A | 0.304 | 0.229 | 0.266 | 0.217 | 0.922 | 0.855 | 1.13 | 0.882 | 0.522 | 0.605 | 0.619 | 0.644 | 1.01 | 0.97 | 1.28 | 1.21 | 1.2 | 0.644 |
| NCI-H460 | 0.035 | 0.0314 | 0.0281 | 0.0281 | 0.568 | 0.657 | 0.478 | 0.428 | 1.11 | 0.614 | 1.04 |  | 1.27 | 1.02 | 1.19 | 1.19 | 1.27 | 1.12 |
| NCI-H1648 |  |  |  |  | 0.511 | 0.467 | 0.616 | 0.506 |  |  |  |  |  |  |  |  |  |  |
| HCC-44 | 1.04 | 1.14 | 1.01 | 0.964 | 0.988 | 0.969 | 1.01 | 0.981 | 0.813 | 0.782 | 0.801 | 0.866 | 0.896 | 0.881 | 0.987 | 0.908 | 0.946 | 0.743 |
| NCI-H647 | 0.103 | 0.123 | 0.286 | 0.16 | 0.407 | 0.502 | 0.479 | 0.462 | 1.03 | 1.07 | 1.13 | 1.06 | 0.823 | 0.86 | 0.991 | 1.04 | 1.02 | 0.993 |
| Calu-6 |  |  |  |  |  |  |  |  | 0.911 | 0.576 | 0.802 | 0.723 | 0.992 | 0.959 | 0.934 | 1.11 | 0.932 | 0.872 |
| 201T | 1.03 | 1.05 | 1.09 | 1.04 | 0.819 | 0.847 | 0.864 | 0.918 | 1.03 | 1.02 | 1.03 | 1.04 | 1.05 | 1.06 | 1.13 | 1.09 | 1.09 | 1.04 |
| CAL-12T | 0.268 | 0.517 | 0.381 | 0.247 |  |  |  |  |  | 0.589 | 0.582 | 0.718 | 0.988 | 0.915 | 0.836 | 0.884 | 0.693 | 0.301 |
| HCC-78 |  |  |  |  | 0.743 | 0.766 | 0.789 | 0.802 | 0.347 | 0.328 | 0.289 | 0.335 | 0.513 | 0.453 | 0.58 | 0.496 | 0.488 | 0.247 |
| LK-2 | 0.176 | 0.169 | 0.225 | 0.254 | 0.262 | 0.326 | 0.269 | 0.335 |  | 0.355 | 0.216 | 0.275 |  |  |  |  |  | 0.252 |
| NCI-H522 | 1.15 | 1.06 | 0.975 | 1.17 | 0.692 | 0.633 | 0.725 | 0.624 |  |  |  |  |  |  |  |  |  |  |
| NCI-H322M | 0.812 | 0.832 | 0.848 | 0.775 | 0.604 | 0.699 | 0.722 | 0.661 | 0.964 | 0.848 | 0.887 | 1.03 | 1.09 | 1.22 | 1.25 | 1.24 | 1.07 | 0.608 |

Reference: the supplement of paper PMC10307832
